According to patent US6569878B1, “Substituted 4-amino-thiazol-2-yl compounds as cyclin-dependent kinase inhibitors” (Agouron Pharmaceuticals Inc., priority 1997, dated 2003):

Key:
CDK2/cyclin A = molecular target: T1, CDK2/cyclin A (Homo sapiens, UniProt P24941); experiment: Inhibition of CDK2/cyclin A retinoblastoma kinase activity; format: biochemical; details: read-out: Ki CDK 2/A
T1 construct: made in house; host or cells: CDK2: insect cells (baculovirus); cyclin A: E. coli, then limited proteolysis
Outline: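 Baculovirus-expressed CDK2 with excess proteolyzed cyclin A (or purified complex), 150 nM or 5 nM, phosphorylating an Rb fragment with 25 μM [32/33P]ATP, pH 7.4, 30° C, 20 min. Filter-captured radioactivity by phosphorimager; apparent Ki from fits to competitive or tight-binding competitive inhibition using measured ATP Km.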

[1] = molecular target: T2, complex of human CDK4 and genetically truncated (1-264) cyclin D3 (Homo sapiens, UniProt P11802); experiment: Inhibition of CDK4/cyclin D retinoblastoma kinase activity (D-type cyclin is truncated D3); format: biochemical; details: superscript c: D-type cyclin is truncated D3; read-out: Ki CDK 4/D
T2 construct: made in house; host or cells: insect cells, co-infected with baculovirus
Experimental: Cyclin-dependent kinase activity was measured by quantifying the enzyme-catalyzed, time-dependent incorporation of radioactive phosphate from [^32P]ATP or [^33P]ATP into a protein substrate. Unless noted otherwise, assays were performed in 96-well plates in a total volume of 50 μL, in the presence of 10 mM HEPES (N-[2-hydroxyethyl]piperazine-N′-[2-ethanesulfonic acid]) (pH 7.4), 10 mM MgCl2, 25 μM adenosine triphosphate (ATP), 1 mg/mL ovalbumin, 5 μg/mL leupeptin, 1 mM dithiothreitol, 10 mM β-glycerophosphate, 0.1 mM sodium vanadate, 1 mM sodium fluoride, 2.5 mM ethylene glycol-bis(β-aminoethyl ether)-N,N,N′N′-tetraacetic acid (EGTA), 2% (v/v) dimethylsulfoxide, and 0.03-0.4 μCi [^32/33P]ATP per reaction. Reactions were initiated with enzyme, incubated at 30° C., and terminated after 20 minutes by the addition of ethylenediaminetetraacetic acid (EDTA) to 250 mM. The phosphorylated substrate was then captured on a nitrocellulose or phosphocellulose membrane using a 96-well filtration manifold, and unincorporated radioactivity was removed by repeated washing with 0.85% phosphoric acid. Radioactivity was quantified by exposing the dried membranes to a phosphorimager.
Apparent Ki values were measured by assaying enzyme activity in the presence of different inhibitor compound concentrations and subtracting the background radioactivity measured in the absence of enzyme. The kinetic parameters (kcat, Km for ATP) were measured for each enzyme under the usual assay conditions by determining the dependence of initial rates on ATP concentration. Inhibition data were fit to an equation for competitive inhibition using Kaleidagraph (Synergy Software), or were fit to an equation for competitive tight-binding inhibition using the software KineTic (BioKin, Ltd.).
A complex of human CDK4 and cyclin D3, or a complex of cyclin D1 and a fusion protein of human CDK4 and gluathione-S-transferase (GST-CDK4), or a complex of human CDK4 and genetically truncated (1-264) cyclin D3, was purified using traditional biochemical chromatographic techniques from insect cells that had been co-infected with the corresponding baculovirus expression vectors (see e.g., Meijer and Kim, “Chemical Inhibitors of Cyclin-Dependent Kinases,” Methods in Enzymol,. vol. 283 (1997), pp. 113-128.). The enzyme complex (5 or 50 nM) was assayed with 0.3-0.5 μg of purified recombinant retinoblastoma protein fragment (Rb) as a substrate. The engineered Rb fragment (residues 386-928 of the native retinoblastoma protein; 62.3 kDa) contains the majority of the phosphorylation sites found in the native 106-kDa protein, as well as a tag of six histidine residues for ease of purification. Phosphorylated Rb substrate was captured by microfiltration on a nitrocellulose membrane and quantified using a phosphorimager as described above. For measurement of tight-binding inhibitors, the enzyme complex concentration was lowered to 5 nM, and the assay duration was extended to 60 minutes, during which the time-dependence of product formation was linear.

MDA-MB-468 = experiment: Inhibition of cell growth, MTT assay, MDA-MB-468; format: cell-based; details: Homo sapiens; MDA-MB-468, MTT assay
Experimental: (§1) The water-insoluble purple formazan product was then detected spectrophotometrically. […] Plates were incubated for four hours before addition of inhibitor compounds. Different concentrations of inhibitor compounds were added in 0.5% (v/v) dimethylsulfoxide (15 μL/well), and cells were incubated at 37° C. (5% CO2) for four to six days (depending on cell type). At the end of the incubation, MTT was added to a final concentration of 0.2 mg/mL, and cells were incubated for 4 hours more at 37° C. After centrifugation of the plates and removal of medium, the absorbance of the formazan (solubilized in dimethylsulfoxide) was measured at 540 nm.

HCT116 = experiment: Inhibition of cell growth, MTT assay, HCT116; format: cell-based, human; details: for IC50 / IC90: Homo sapiens, HCT-116
Outline: (§2)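 Cells rested 4 h after plating, then exposed to graded compound concentrations in 0.5% (v/v) DMSO for four to six days (cell-type dependent) at 37° C, 5% CO2. Viability was read by MTT (0.2 mg/mL final, 4 h at 37° C), with DMSO-solubilized formazan measured at 540 nm.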

Saos-2 = experiment: Inhibition of cell growth, MTT assay, Saos-2; format: cell-based; details: Homo sapiens; Saos-2, MTT assay
Outline: as §2

[2] = molecular target: T3, complex of human CDK4 and cyclin D3 (Homo sapiens, UniProt P11802); experiment: Inhibition of CDK4/cyclin D retinoblastoma kinase activity (D-type cyclin is D3); format: biochemical; details: superscript a: D-type cyclin is D3; apparent Ki; read-out: Ki CDK 4/D
T3 construct: made in house; host or cells: insect cells, co-infected with baculovirus
Outline: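 Radiometric assay: [32P]- or [33P]ATP phosphate incorporation into Rb substrate at 30°C for 20 min, stopped with EDTA, filter-captured and phosphorimaged.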

MCF-7 = experiment: Inhibition of cell growth, MTT assay, MCF-7; format: cell-based; details: MCF-7, MTT assay; for IC50 / IC90: Homo sapiens, MCF7
Experimental: as §1

[3] = molecular target: T4, human CDK1 (cdc2) and cyclin B (Homo sapiens, UniProt P06493); experiment: Inhibition of CDK1(cdc2)/cyclin B histone H1 kinase activity; format: biochemical; details: read-out: Ki CDK 1/B
T4 construct: purchased New England Biolabs (Beverly Mass.)
Outline: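 CDK1/cyclin B (commercial, or CDK1/GST-cyclin B1 from co-infected insect cells) phosphorylated histone H1 with 25 μM [32/33P]ATP at pH 7.4, 30° C for 20 min, 2% DMSO. Product captured on phosphocellulose and read by phosphorimager; apparent Ki from competitive or tight-binding fits, with Km for ATP determined.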

U2-OS = experiment: Inhibition of cell growth, MTT assay, U2-OS; format: cell-based; details: for IC50 / IC90: Homo sapiens, U2OS
Outline: as §2

SW-480 = experiment: Inhibition of cell growth, MTT assay, SW-480; format: cell-based; details: Homo sapiens, SW480; SW-480, MTT assay
Experimental: Inhibition of cell growth was measured using the tetrazolium salt assay, which is based on the ability of viable cells to reduce 3-(4,5-dimethylthiazol-2-yl)-2,5-[2H]-diphenyltetrazolium bromide (MTT) to formazan (Mossman, Journal of Immunological Methods, vol. 65 (1983), pp. 55-58). The water-insoluble purple formazan product was then detected spectrophotometrically. Various cell lines (HCT-116, Saos-2, U2-OS, SW480, COLO-205, RXF-393, M14, MDA-MB-468, and MCF7) were grown in 96-well plates. Cells were plated in the appropriate medium at a volume of 135 μl/well in either McCoy's 5A Medium (for Saos-2, U2-OS, SW480, and HCT-116 cells), RPMI (for COLO-205, RXF-393, M14 cells), or Minimum Essential Medium Eagle (for MDA-MB-468 and MCF7 cells). Plates were incubated for four hours before addition of inhibitor compounds. Different concentrations of inhibitor compounds were added in 0.5% (v/v) dimethylsulfoxide (15 μL/well), and cells were incubated at 37° C. (5% CO2) for four to six days (depending on cell type). At the end of the incubation, MTT was added to a final concentration of 0.2 mg/mL, and cells were incubated for 4 hours more at 37° C. After centrifugation of the plates and removal of medium, the absorbance of the formazan (solubilized in dimethylsulfoxide) was measured at 540 nm. […] All results were compared to control cells treated only with 0.5% (v/v) dimethylsulfoxide.

T2 sequence (P11802 whole entry, the tested form may be a part): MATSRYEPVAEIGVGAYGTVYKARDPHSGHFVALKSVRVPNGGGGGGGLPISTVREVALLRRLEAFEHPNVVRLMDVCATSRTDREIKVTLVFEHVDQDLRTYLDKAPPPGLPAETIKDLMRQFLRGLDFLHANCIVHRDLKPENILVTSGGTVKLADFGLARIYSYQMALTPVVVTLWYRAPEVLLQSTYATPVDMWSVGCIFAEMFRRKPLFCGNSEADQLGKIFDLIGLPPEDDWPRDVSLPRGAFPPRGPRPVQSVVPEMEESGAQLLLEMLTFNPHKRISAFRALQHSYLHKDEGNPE
T2 sequence (P30281 1-264 partner limits assumed): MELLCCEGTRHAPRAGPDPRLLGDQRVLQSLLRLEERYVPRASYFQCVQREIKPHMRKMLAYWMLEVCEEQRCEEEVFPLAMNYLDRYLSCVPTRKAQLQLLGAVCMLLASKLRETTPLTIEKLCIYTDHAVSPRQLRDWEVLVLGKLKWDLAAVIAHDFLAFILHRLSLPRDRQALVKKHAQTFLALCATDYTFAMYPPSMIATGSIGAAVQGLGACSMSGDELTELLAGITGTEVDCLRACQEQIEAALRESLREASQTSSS
T3 sequence (P11802 whole entry): as the sequence (P11802 whole entry, the tested form may be a part) above
T3 sequence (P30281 whole entry partner): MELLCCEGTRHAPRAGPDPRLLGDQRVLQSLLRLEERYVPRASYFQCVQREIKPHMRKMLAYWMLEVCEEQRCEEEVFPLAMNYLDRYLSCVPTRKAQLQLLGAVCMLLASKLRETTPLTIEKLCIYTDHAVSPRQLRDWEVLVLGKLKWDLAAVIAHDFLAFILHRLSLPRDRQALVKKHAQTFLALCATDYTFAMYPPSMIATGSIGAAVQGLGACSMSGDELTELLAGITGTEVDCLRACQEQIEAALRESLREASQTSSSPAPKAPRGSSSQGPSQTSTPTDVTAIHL
T4 sequence (P06493 whole entry): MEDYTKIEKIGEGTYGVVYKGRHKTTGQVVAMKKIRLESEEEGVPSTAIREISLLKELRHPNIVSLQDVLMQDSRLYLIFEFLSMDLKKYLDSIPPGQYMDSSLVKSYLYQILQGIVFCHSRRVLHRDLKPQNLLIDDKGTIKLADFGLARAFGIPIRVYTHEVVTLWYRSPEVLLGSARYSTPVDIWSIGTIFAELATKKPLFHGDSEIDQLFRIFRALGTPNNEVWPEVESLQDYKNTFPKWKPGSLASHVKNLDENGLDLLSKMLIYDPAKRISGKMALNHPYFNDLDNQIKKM
T4 sequence (P14635 whole entry partner): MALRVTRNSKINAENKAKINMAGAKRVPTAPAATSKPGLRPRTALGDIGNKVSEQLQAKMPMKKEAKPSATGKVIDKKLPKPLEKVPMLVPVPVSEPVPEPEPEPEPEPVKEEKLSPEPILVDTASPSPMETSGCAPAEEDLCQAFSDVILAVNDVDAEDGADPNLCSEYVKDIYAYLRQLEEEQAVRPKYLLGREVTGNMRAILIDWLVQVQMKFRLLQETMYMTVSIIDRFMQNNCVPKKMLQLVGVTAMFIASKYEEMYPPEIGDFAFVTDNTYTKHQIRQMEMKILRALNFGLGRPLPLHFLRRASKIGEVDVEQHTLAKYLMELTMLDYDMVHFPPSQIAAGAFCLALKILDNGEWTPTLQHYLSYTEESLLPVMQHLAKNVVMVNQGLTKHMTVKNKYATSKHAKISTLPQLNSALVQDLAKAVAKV

SMILES	Ki (CDK2/cyclin A) [nM]	Ki [1] [nM]	IC50 (MDA-MB-468) [nM]	IC90 (MDA-MB-468) [nM]	IC50 (HCT116) [nM]	IC90 (HCT116) [nM]	IC50 (Saos-2) [nM]	IC90 (Saos-2) [nM]	Ki [2] [nM]	IC50 (MCF-7) [nM]	IC90 (MCF-7) [nM]	Ki [3] [nM]	IC50 (U2-OS) [nM]	IC90 (U2-OS) [nM]	IC50 (SW-480) [nM]	IC90 (SW-480) [nM]	% inhibition of growth in parentheses after >25 (HCT116; concentration not given) [%]	% inhibition of growth in parentheses after >25 (MCF-7; concentration not given)	% inhibition of growth in parentheses after >25 (U2-OS; concentration not given) [%]
CN(CCC#N)c1ccc(Nc2nc(N)c(C(=O)c3c(F)cccc3F)s2)cc1 [C(129), 3-({4-[4-Amino-5-(2,6-difluorobenzoyl)-thiazol-2-yl-amino]-phenyl}-methylamino)-propionitrile]	270	64																	
CN(C)CCN(C)c1ccc(Nc2nc(N)c(C(=O)c3c(F)cccc3F)s2)cc1 [C(110), (4-Amino-2-{4-[(2-dimethylamino-ethyl)-methyl-amino]-phenylamino}-thiazol-5-yl)-(2,6-difluoro-phenyl)-methanone]	260		440	750	640	1700	890	1800	14	400	1700	104	700	1600					
CN1CCCN(c2ccc(Nc3nc(N)c(C(=O)c4c(F)cccc4F)s3)cc2)CC1 [C(128), {4-Amino-2-[4-(1-methyl-[1,4]-diazepan-4-yl)-phenylamino]-thiazol-5-yl}-(2,6-difluoro-phenyl)-methanone]	440	30																	
Nc1nc(Nc2ccc(N3CCN(CC4CC4)CC3)cc2)sc1C(=O)c1c(F)cccc1F [C(121), {4-Amino-2-[4-(4-cyclopropylmethyl-piperazin-1-yl)-phenylamino]-thiazol-5-yl}-(2,6-difluoro-phenyl)-methanone]	953	10.6			2500	5300	5100	12000					6000	11000					
COc1ccc(Nc2nc(N)c(C(=O)c3ccccc3[N+](=O)[O-])s2)cc1 [A(10), [4-Amino-2-(4-methoxy-phenylamino)-thiazol-5-yl]-(2-nitro-phenyl)-methanone]	318		720	1700	950	1800	1300	4600	36	650	5500	57	900	1600	700	7500			
CN(C)CCCN(C)c1ccc(Nc2nc(N)c(C(=O)c3c(F)cccc3F)s2)cc1 [C(126), (4-Amino-2-{4-[(3-dimethylamino-propyl)-methyl-amino]-phenylamino}-thiazol-5-yl)-(2,6-difluoro-phenyl)-methanone]	390	24			600	1400													
Nc1nc(Nc2ccc(N3CCN(c4ccncc4)CC3)cc2)sc1C(=O)c1c(F)cccc1F [C(127)]	215	26																	
Nc1nc(Nc2ccc(N3CCC(C(=O)O)CC3)cc2)sc1C(=O)c1c(F)cccc1F [M, 1-{4-[4-Amino-5-(2,6-difluoro-benzoyl)-thiazol-2-ylamino]-phenyl}-piperidine-4-carboxylic Acid]	290	46			> 25000														
Nc1nc(Nc2ccc(-c3ccncc3)cc2)sc1C(=O)c1c(F)cccc1F [C(122), [4-Amino-2-(4-pyridin-4-yl-phenylamino)-thiazol-5-yl]-(2,6-difluoro-phenyl)-methanone]	165	35			1700	4800	3700	10000					1500	4700					
NC(=O)C1CCN(c2ccc(Nc3nc(N)c(C(=O)c4c(F)cccc4F)s3)cc2)CC1 [L, {4-Amino-2-[4-(4-carboxamido-piperidin-1-yl)-phenylamino]-thiazol-5-yl}-(2,6-difluoro-phenyl)-methanone]		22			> 12500							193							
Nc1nc(Nc2ccc(N3CCN(c4ccccn4)CC3)cc2)sc1C(=O)c1c(F)cccc1F [K, {4-Amino-2-[4-(4-pyridin-2-yl-piperazin-1-yl)-phenylamino]-thiazol-5-yl}-(2,6-difluoro-phenyl)-methanone]	364	43			3500	6200	6000	13000					3500	6000					
Cc1c(C(=O)c2sc(Nc3ccc4nc[nH]c4c3)nc2N)sc2ccccc12 [C(8), [4-Amino-2-(1H-benzoimidazol-6-ylamino)-thiazol-5-yl]-(3-methyl-benzo[b]thiophen-2-yl)-methanone]	389		6800	15000	18000	> 25000	6200	18000	27	15000	> 25000	97	10000	> 25000	8300	20000	88	(82%)	84
